In US20250122183A1 (Pfizer Inc., priority 2023, published 2025) one finds Ki data, which are given here for 23 compounds.

For assay [1], the target named is KAT7+JADE1+EAF6+ING5 4 protein complex (Homo sapiens (Human), UniProt O95251). Put plainly: KAT7 JADE1 assay (SAMDI-MS acetylation of H3 1-21 peptide). Format: biochemical. The conditions noted are these: replicate number in parentheses.
Another assay deals with KAT6A Full length enzyme (Homo sapiens (Human), UniProt Q92794). Put plainly: KAT6A assay (SAMDI-MS acetylation of H3 1-21 peptide). Format: biochemical. The conditions noted are these: replicate number in parentheses.
[2] abbreviates: Morrison equation fit, read-out: KAT7 JADE1 Ki (nM) (replicate number).
Setting [3] is: Morrison equation fit, read-out: KAT6A Ki (nM) (replicate number).
The mark [4] stands for this setting: read-out: KAT7 JADE1 Ki (nM) (replicate).
The mark [5] stands for this setting: read-out: KAT6A Ki (nM) (replicate).

Where two headings read alike, the source gives them in different places.

Sequence of KAT6A Full length enzyme (Q92794 other isoform, or with tags, fused parts or gaps): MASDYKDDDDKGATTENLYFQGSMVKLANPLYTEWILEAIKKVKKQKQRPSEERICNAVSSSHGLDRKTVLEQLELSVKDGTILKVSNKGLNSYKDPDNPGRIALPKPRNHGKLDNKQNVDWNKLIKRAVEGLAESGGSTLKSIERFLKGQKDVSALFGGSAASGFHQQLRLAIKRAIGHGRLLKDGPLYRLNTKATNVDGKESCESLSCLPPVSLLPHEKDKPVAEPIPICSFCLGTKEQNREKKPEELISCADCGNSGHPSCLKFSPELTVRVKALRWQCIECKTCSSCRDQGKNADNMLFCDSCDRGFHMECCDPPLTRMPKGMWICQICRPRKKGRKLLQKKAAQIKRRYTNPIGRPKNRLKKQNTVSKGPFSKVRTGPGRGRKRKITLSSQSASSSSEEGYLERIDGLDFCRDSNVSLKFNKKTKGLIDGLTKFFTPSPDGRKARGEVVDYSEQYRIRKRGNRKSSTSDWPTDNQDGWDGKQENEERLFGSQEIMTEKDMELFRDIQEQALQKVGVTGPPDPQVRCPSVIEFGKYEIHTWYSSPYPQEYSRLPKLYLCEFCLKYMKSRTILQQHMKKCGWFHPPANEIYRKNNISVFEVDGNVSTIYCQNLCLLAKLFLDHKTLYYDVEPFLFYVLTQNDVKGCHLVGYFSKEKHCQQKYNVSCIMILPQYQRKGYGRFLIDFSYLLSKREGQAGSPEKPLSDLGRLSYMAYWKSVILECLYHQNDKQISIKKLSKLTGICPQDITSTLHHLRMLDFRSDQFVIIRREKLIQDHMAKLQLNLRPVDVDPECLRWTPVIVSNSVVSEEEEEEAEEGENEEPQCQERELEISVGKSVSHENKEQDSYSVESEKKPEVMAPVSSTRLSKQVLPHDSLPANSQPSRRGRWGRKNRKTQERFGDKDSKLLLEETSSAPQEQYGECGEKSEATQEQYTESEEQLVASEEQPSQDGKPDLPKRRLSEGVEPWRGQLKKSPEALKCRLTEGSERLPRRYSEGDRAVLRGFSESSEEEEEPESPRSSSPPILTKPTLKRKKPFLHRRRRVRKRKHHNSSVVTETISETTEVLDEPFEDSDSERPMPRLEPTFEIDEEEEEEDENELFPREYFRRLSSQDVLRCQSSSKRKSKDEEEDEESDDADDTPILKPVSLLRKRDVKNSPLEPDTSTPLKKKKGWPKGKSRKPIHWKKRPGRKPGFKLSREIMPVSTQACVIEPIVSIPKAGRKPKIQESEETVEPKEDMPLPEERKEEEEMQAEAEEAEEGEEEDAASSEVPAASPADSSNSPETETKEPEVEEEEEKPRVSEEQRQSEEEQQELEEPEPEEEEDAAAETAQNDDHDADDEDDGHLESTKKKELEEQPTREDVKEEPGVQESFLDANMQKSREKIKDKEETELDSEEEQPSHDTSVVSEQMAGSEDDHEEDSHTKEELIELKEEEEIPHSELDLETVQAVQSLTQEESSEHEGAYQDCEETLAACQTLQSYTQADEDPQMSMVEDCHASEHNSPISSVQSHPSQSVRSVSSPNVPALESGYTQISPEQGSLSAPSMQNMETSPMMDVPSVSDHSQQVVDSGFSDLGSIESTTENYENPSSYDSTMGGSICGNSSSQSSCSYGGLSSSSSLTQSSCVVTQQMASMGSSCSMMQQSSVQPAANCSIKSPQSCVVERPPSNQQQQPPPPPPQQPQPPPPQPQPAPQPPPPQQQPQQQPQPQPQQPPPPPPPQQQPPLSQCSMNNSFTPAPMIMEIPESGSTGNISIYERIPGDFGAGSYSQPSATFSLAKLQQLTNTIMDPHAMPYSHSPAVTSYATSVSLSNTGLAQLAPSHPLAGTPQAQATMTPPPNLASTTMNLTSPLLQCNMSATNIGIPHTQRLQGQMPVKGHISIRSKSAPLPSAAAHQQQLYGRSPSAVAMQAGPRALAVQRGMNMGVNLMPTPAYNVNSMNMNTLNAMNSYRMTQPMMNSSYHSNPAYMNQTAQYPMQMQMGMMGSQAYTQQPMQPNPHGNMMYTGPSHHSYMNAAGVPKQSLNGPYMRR

For orientation: Ki means the equilibrium dissociation constant of an inhibitor or competing ligand from its target. As to `CCN1CCCC1c1cc(OC)c(S(=O)(=O)Nc2noc3cc(Nc4cc(C5CC5)[nH]n4)c(OC)cc23)c(OC)c1` (single isomer, unassigned) [Example 190, N-{6-[(5-cyclopropyl-1 H-pyrazol-3-yl)amino]-5-methoxy-1,2-benzoxazol-3-yl}-4-(1-ethylpyrrolidin-2-yl)-2,6-dimethoxybenzene-1-sulfonamide], the inhibition constant (Ki) in assay [1] (setting [2]) is 54.5 nM; at KAT6A Full length enzyme (setting [3]), 5.6 nM.

For `CCN1CCCC1c1cc(OC)c(S(=O)(=O)Nc2noc3cc(Nc4cc(C5CC5)[nH]n4)c(OC)cc23)c(OC)c1` (single isomer, unassigned) [Example 191, N-{6-[(5-cyclopropyl-1 H-pyrazol-3-yl)amino]-5-methoxy-1,2-benzoxazol-3-yl}-4-(1-ethylpyrrolidin-2-yl)-2,6-dimethoxybenzene-1-sulfonamide], the inhibition constant Ki came to 15.4 nM in assay [1] (setting [2]) and 2.3 nM on KAT6A Full length enzyme (setting [3]).

For `COc1cc2c(NS(=O)(=O)c3c(OC)cc(CN4CCC[C@H](F)C4)cc3OC)noc2cc1Nc1cc(C2CC2)n[nH]1` (single isomer, unassigned) [Example 197, N-{6-[(3-cyclopropyl-1H-pyrazol-5-yl)amino]-5-methoxy-1,2-benzoxazol-3-yl}-4-[(3-fluoropiperidin-1-yl)methyl]-2,6-dimethoxybenzene-1-sulfonamide], the Ki in assay [1] (setting [2]) is 7.3 nM; on KAT6A Full length enzyme (setting [3]), 1.3 nM.

`COc1cc2c(NS(=O)(=O)c3c(OC)cc(CN4CCC[C@@H](F)C4)cc3OC)noc2cc1Nc1cc(C2CC2)n[nH]1` (single isomer, unassigned) [Example 198, N-{6-[(3-cyclopropyl-1H-pyrazol-5-yl)amino]-5-methoxy-1,2-benzoxazol-3-yl}-4-[(3-fluoropiperidin-1-yl)methyl]-2,6-dimethoxybenzene-1-sulfonamide]: the inhibition constant Ki in assay [1] (setting [2]) turned out to be 5.9 nM; on KAT6A Full length enzyme (setting [3]), 1.1 nM.

Regarding `COc1cc2c(NS(=O)(=O)c3c(OC)cc(C(C)N4CCOCC4)cc3OC)noc2cc1Nc1cc(C2CC2)n[nH]1` (single isomer, unassigned) [Example 208, N-{6-[(3-cyclopropyl-1H-pyrazol-5-yl)amino]-5-methoxy-1,2-benzoxazol-3-yl}-2,6-dimethoxy-4-[1-(morpholin-4-yl)ethyl]benzene-1-sulfonamide], the Ki in assay [1] (setting [2]) was 7.6 nM; on KAT6A Full length enzyme (setting [3]) it was 2.4 nM.

As to `COc1cc2c(NS(=O)(=O)c3c(OC)cc(C(C)N4CC(F)C4)cc3OC)noc2cc1Nc1cc(C2CC2)[nH]n1` (single isomer, unassigned) [Example 210, N-{6-[(5-cyclopropyl-1H-pyrazol-3-yl)amino]-5-methoxy-1,2-benzoxazol-3-yl}-4-[1-(3-fluoroazetidin-1-yl)ethyl]-2,6-dimethoxybenzene-1-sulfonamide], the inhibitory constant (Ki) in assay [1] (setting [2]) was found to be 6.6 nM; on KAT6A Full length enzyme (setting [3]), 1.2 nM.

For the compound `COc1cc2c(NS(=O)(=O)c3c(OC)cc(C4CN(C)CC(F)(F)C4)cc3OC)noc2cc1Nc1cc(C2CC2)[nH]n1` (single isomer, unassigned) [Example 228, N-{6-[(5-cyclopropyl-1 H-pyrazol-3-yl)amino]-5-methoxy-1,2-benzoxazol-3-yl}-4-(5,5-difluoro-1-methylpiperidin-3-yl)-2,6-dimethoxybenzene-1-sulfonamide], the Ki worked out at 6.2 nM in assay [1] (setting [2]) and 0.8 nM on KAT6A Full length enzyme (setting [3]).

Take `COc1cc2c(NS(=O)(=O)c3c(OC)cc(C4CN(C)CC(F)(F)C4)cc3OC)noc2cc1Nc1cc(C2CC2)[nH]n1` (single isomer, unassigned) [Example 229, N-{6-[(5-cyclopropyl-1 H-pyrazol-3-yl)amino]-5-methoxy-1,2-benzoxazol-3-yl}-4-(5,5-difluoro-1-methylpiperidin-3-yl)-2,6-dimethoxybenzene-1-sulfonamide]: the inhibitory constant (Ki) in assay [1] (setting [2]) is 6.4 nM; on KAT6A Full length enzyme (setting [3]), 1.7 nM.

Consider `CCc1cc(Nc2cc3onc(NS(=O)(=O)c4c(OC)cc(C5COCCO5)cc4OC)c3cc2OC)[nH]n1` (single isomer, unassigned) [Example 239, 4-(1,4-dioxan-2-yl)-N-{6-[(3-ethyl-1H-pyrazol-5-yl)amino]-5-methoxy-1,2-benzoxazol-3-yl}-2,6-dimethoxybenzene-1-sulfonamide], for which the Ki in assay [1] (setting [2]) is 14.1 nM; at KAT6A Full length enzyme (setting [3]), 2.1 nM.

As to `CCc1cc(Nc2cc3onc(NS(=O)(=O)c4c(OC)cc(C5COCCO5)cc4OC)c3cc2OC)[nH]n1` (single isomer, unassigned) [Example 240, 4-(1,4-dioxan-2-yl)-N-{6-[(3-ethyl-1H-pyrazol-5-yl)amino]-5-methoxy-1,2-benzoxazol-3-yl}-2,6-dimethoxybenzene-1-sulfonamide], the Ki in assay [1] (setting [2]) amounted to 7.5 nM; on KAT6A Full length enzyme (setting [3]), 1.2 nM.

`COc1cc2c(NS(=O)(=O)c3c(OC)cc(-c4ccn(C)n4)cc3OC)noc2cc1Nc1cc(C2CC2C)n[nH]1` (single isomer, unassigned) [Example 241, 2,6-dimethoxy-N-(5-methoxy-6-{[3-(2-methylcyclopropyl)-1H-pyrazol-5-yl]amino}-1,2-benzoxazol-3-yl)-4-(1-methyl-1H-pyrazol-3-yl)benzene-1-sulfonamide]: the results for the Ki (in assay [1] (setting [2]); at KAT6A Full length enzyme (setting [3])) were 75.3 nM and 2.6 nM, respectively.

Turning to `COc1cc2c(NS(=O)(=O)c3c(OC)cc(N4C(=O)CCC4C)cc3OC)noc2cc1Nc1cc(C2CC2)n[nH]1` (single isomer, unassigned) [Example 244, N-{6-[(3-cyclopropyl-1 H-pyrazol-5-yl)amino]-5-methoxy-1,2-benzoxazol-3-yl}-2,6-dimethoxy-4-(2-methyl-5-oxopyrrolidin-1-yl)benzene-1-sulfonamide], the inhibitory constant (Ki) in assay [1] (setting [2]) was 1.3 nM; on KAT6A Full length enzyme (setting [3]) it was 0.2 nM.

Take `COc1cc2c(NS(=O)(=O)c3c(OC)cc(N4C(=O)CCC4C)cc3OC)noc2cc1Nc1cc(C2CC2)n[nH]1` (single isomer, unassigned) [Example 245, N-{6-[(3-cyclopropyl-1 H-pyrazol-5-yl)amino]-5-methoxy-1,2-benzoxazol-3-yl}-2,6-dimethoxy-4-(2-methyl-5-oxopyrrolidin-1-yl)benzene-1-sulfonamide]: the inhibition constant (Ki) in assay [1] (setting [2]) stood at 3.6 nM; on KAT6A Full length enzyme (setting [3]) it was 0.7 nM.

For `COc1cc2c(NS(=O)(=O)c3c(OC)cc(C4CCOC4)cc3OC)noc2cc1Nc1cc(C2CC2)n[nH]1` (single isomer, unassigned) [Example 266, N-{6-[(3-cyclopropyl-1H-pyrazol-5-yl)amino]-5-methoxy-1,2-benzoxazol-3-yl}-2,6-dimethoxy-4-(oxolan-3-yl)benzene-1-sulfonamide], the values for the inhibition constant (Ki) (in assay [1] (setting [4]); on KAT6A Full length enzyme (setting [5])) were 13.6 nM and 1.6 nM, respectively.

As to `COc1cc2c(NS(=O)(=O)c3c(OC)cc(C4CCOC4)cc3OC)noc2cc1Nc1cc(C2CC2)n[nH]1` (single isomer, unassigned) [Example 267, N-{6-[(3-cyclopropyl-1H-pyrazol-5-yl)amino]-5-methoxy-1,2-benzoxazol-3-yl}-2,6-dimethoxy-4-(oxolan-3-yl)benzene-1-sulfonamide], the Ki was determined as 9.3 nM in assay [1] (setting [4]) and 1.3 nM at KAT6A Full length enzyme (setting [5]).

On to `COc1cc2c(NS(=O)(=O)c3c(OC)cc(C4CCCOC4)cc3OC)noc2cc1Nc1cc(C2CC2)n[nH]1` (single isomer, unassigned) [Example 268, N-{6-[(3-cyclopropyl-1 H-pyrazol-5-yl)amino]-5-methoxy-1,2-benzoxazol-3-yl}-2,6-dimethoxy-4-(oxan-3-yl)benzene-1-sulfonamide], for which the figures for the Ki (in assay [1] (setting [4]); at KAT6A Full length enzyme (setting [5])) were 8.8 nM and 1.2 nM, respectively.

Take `COc1cc2c(NS(=O)(=O)c3c(OC)cc(C4CCCOC4)cc3OC)noc2cc1Nc1cc(C2CC2)n[nH]1` (single isomer, unassigned) [Example 269, N-{6-[(3-cyclopropyl-1 H-pyrazol-5-yl)amino]-5-methoxy-1,2-benzoxazol-3-yl}-2,6-dimethoxy-4-(oxan-3-yl)benzene-1-sulfonamide]: the inhibition constant (Ki) is 6.1 nM in assay [1] (setting [4]) and 0.8 nM at KAT6A Full length enzyme (setting [5]).

Take `COCC(OC)c1cc(OC)c(S(=O)(=O)Nc2noc3cc(Nc4cc(C5CC5)[nH]n4)c(OC)cc23)c(OC)c1` (single isomer, unassigned) [Example 274, N-{6-[(5-cyclopropyl-1 H-pyrazol-3-yl)amino]-5-methoxy-1,2-benzoxazol-3-yl}-4-(1,2-dimethoxyethyl)-2,6-dimethoxybenzene-1-sulfonamide]: the figures for the inhibition constant (Ki) (in assay [1] (setting [4]); on KAT6A Full length enzyme (setting [5])) were 6.9 nM and 2.8 nM, respectively.

As for `COCC(OC)c1cc(OC)c(S(=O)(=O)Nc2noc3cc(Nc4cc(C5CC5)[nH]n4)c(OC)cc23)c(OC)c1` (single isomer, unassigned) [Example 275, N-{6-[(5-cyclopropyl-1H-pyrazol-3-yl)amino]-5-methoxy-1,2-benzoxazol-3-yl}-4-(1,2-dimethoxyethyl)-2,6-dimethoxybenzene-1-sulfonamide], the Ki worked out at 9.7 nM in assay [1] (setting [4]) and 1.1 nM on KAT6A Full length enzyme (setting [5]).

With `COc1cccc(OC)c1S(=O)(=O)Nc1noc2cc(NC3COC3)cc(OC)c12` [Example 11, 2,6-dimethoxy-N-{4-methoxy-6-[(oxetan-3-yl)amino]-1,2-benzoxazol-3-yl}benzene-1-sulfonamide], the inhibition constant Ki was greater than 2340 nM in assay [1] (setting [2]) and 31.1 nM on KAT6A Full length enzyme (setting [3]).

As for `COc1cccc(OC)c1S(=O)(=O)Nc1noc2cc(NC3CCCC3)cc(OC)c12` [Example 12, N-[6-(cyclopentylamino)-4-methoxy-1,2-benzoxazol-3-yl]-2,6-dimethoxybenzene-1-sulfonamide], the Ki was greater than 2340 nM in assay [1] (setting [2]) and 25.6 nM on KAT6A Full length enzyme (setting [3]).

`COc1cccc(OC)c1S(=O)(=O)Nc1noc2cc(N[C@@H]3CCOC3)cc(OC)c12` [Example 13, 2,6-dimethoxy-N-(4-methoxy-6-{[(3R)-oxolan-3-yl]amino}-1,2-benzoxazol-3-yl)benzene-1-sulfonamide]: the inhibition constant (Ki) in assay [1] (setting [2]) is greater than 2340 nM; on KAT6A Full length enzyme (setting [3]), 25.5 nM.

With `COc1cccc(OC)c1S(=O)(=O)Nc1noc2cc(Nc3ncco3)cc(OC)c12` [Example 17, 2,6-dimethoxy-N-{4-methoxy-6-[(1,3-oxazol-2-yl)amino]-1,2-benzoxazol-3-yl}benzene-1-sulfonamide], the inhibitory constant (Ki) in assay [1] (setting [2]) stood at 1230 nM; at KAT6A Full length enzyme (setting [3]), 1.9 nM.
